In patent US10081615B2, “Sulfamate derivative compounds for use in treating or alleviating pain” (Bio-Pharm Solutions Co., Ltd., priority 2013, dated 2018):

Tested on: not given
Assay: not given
Conditions: not given
Work on `CC1(C)Oc2ccccc2[C@@H](COS([NH-])(=O)=O)O1.[Na+]` (hydrate or solvate) [Example 59, Sodium (S)-(((2,2-dimethyl-4H-benzo[d][1,3]dioxin-4-yl)methoxy)sulfonyl)amide Trihydrate] yielded a melting point of 51.2 to 52.2 °C.
`CC1(C)Oc2ccccc2C(COS([NH-])(=O)=O)O1.[Na+]` (stereo not drawn) (hydrate or solvate) [Example 60, Sodium (((2,2-dimethyl-4H-benzo[d][1,3]dioxin-4-yl)methoxy)sulfonyl)amide Trihydrate] gave a melting point of 81 to 86 °C.

Tested on: SNL model
Assay: Antiallodynic activity in the Chung model (SNL, Spinal Nerve Ligation; von Frey)
Format: in vivo, Sprague-Dawley rats
Conditions: Rattus norvegicus, po, 0.5 h, read-out: SNL model: effect (%) compared to control, rat, oral, 3.5 mg/kg administered, 0.5 h
Method: Male Sprague-Dawley rats (200-220 g, Orient Bio, Korea) were habituated for 1 week before the experiment and allowed free access to food and water throughout the experimentation. Room temperature and humidity were maintained at 24±2° C. and 50±10%, respectively. The neuropathic surgery (SNL, Spinal Nerve Ligation) model was done as described in Kim and Chung (1992). Briefly, an animal was put under gaseous anesthesia with isoflurane and NO2 with a 4:4 flow ratio. The left lumbar spinal nerves L5 and L6 were isolated and tightly ligated with 4-0 silk thread. The wound was treated with a gentamicin antibiotic solution (4 mg/kg, 4 ul/g by bodyweight), and the wound muscle was closed with Catgut® chrome 4/0 thread and the skin was closed with Dafilon 4/0 thread. Sham controls were prepared in the same manner with the spinal nerves were exposed, but no ligated L5 and L6 nerves. Preparation of the vehicle controls were identical to the group treated with compound, except for administration of vehicles without compound in the vehicle control group.
Tactile sensitivity (mechanical allodynia) was evaluated using von Frey monofilaments before and after treatment and animals the animals were included in the study only if the withdrawal threshold value was less than 4 g. One week after surgery, SNL-operated animals (n=4˜6), sham-operated animals (n=4˜10) and vehicle-operated animals (n=4˜13) were tested for tactile sensitivity with von Frey monofilaments with 3 trials in each animal. All animals were placed in a stainless steel mesh chamber and habituated for 30 min in the test cage. The tactile sensitivity for ipsilateral hind paw was measured using the up-and-down method (Dixon, 1980) with seven von Frey monofilaments (0.4, 1, 2, 4, 6, 8, and 15 g) in 3 trials. The tactile sensitivity test was followed by Dixon's method (Dixon, 1980). The 50% paw withdrawal threshold for each paw was calculated using the following formula: [Xth] log=[vFr] log+ky where [vFr] is the force of the last von Frey used, k=0.2249 which is the average interval (in log units) between the von Frey monofilaments, and y is a value that depends upon the pattern of withdrawal responses (Dixon, 1980).
All animals were fasted for 18 h before the administration of the compounds. The antiallodynic effect of the compounds were evaluated at the various doses (n=5˜6), orally administered in a volume of 5 ul/g by bodyweight in a vehicle of 30% (v/v) PEG 400 (Example 7) or 20% (v/v) Tween 80 (Examples 5 and 6) or saline. […]
The relative values compared to the sham group (% control) were calculated and are shown in Table 5, which show an antiallodynic effect of the test compounds in the SNL model in rats.
For `CC1(C)Oc2ccccc2C(CCOS(N)(=O)=O)O1` (stereo not drawn) [Example 68, Sodium ((2-(2,2-dimethyl-4H-benzo[d][1,3]dioxin-4-yl)ethoxy)sulfonyl)amide], the response vs control in vivo at 3.5 mg/kg was 25%.

Same assay, conditions: Rattus norvegicus, po, read-out: SNL model: effect (%) compared to control, rat, oral, 3.5 mg/kg administered, time not given
With `CC1(C)Oc2ccc(Cl)cc2[C@H](COS(N)(=O)=O)O1` [Example 61, Sodium (R)-(((6-chloro-2,2-dimethyl-4H-benzo[d][1,3]dioxin-4-yl)methoxy)sulfonyl)amide] the response vs control in vivo at 3.5 mg/kg was 20.9%.

Same assay, conditions: rat, oral, 3.5 mg/kg administered, 0.5 h
In the case of `CC1(C)Oc2ccccc2[C@@H](COS([NH-])(=O)=O)O1.[Li+]` [Example 73, Lithium (S)-(((2,2-dimethyl-4H-benzo[d][1,3]dioxin-4-yl)methoxy)sulfonyl)amide], the “SNL model: effect (%) compared to control” value is reported as “(13.5%, 0.5 h)”.

Same assay, conditions: rat, oral, 3.5 mg/kg administered, 0.5 h; read-out: SNL model: effect (%) compared to control
For `CC1(C)Oc2ccccc2CC(COS(N)(=O)=O)O1` (racemic) [Example 17, (2,2-dimethyl-4,5-dihydrobenzo[d][1,3]dioxepin-4-yl)methyl sulfamate], the response vs control in vivo at 3.5 mg/kg was 16.8%.

Same assay, conditions: rat, oral, 3.5 mg/kg administered, time not given; read-out: SNL model: effect (%) compared to control
Work on `CCC1(CC)Oc2ccccc2C(CCOS(N)(=O)=O)O1` (racemic) [Example 14, 2-(2,2-diethyl-4H-benzo[d][1.3]dioxin-4-yl)ethyl sulfamate] yielded a response vs control in vivo at 3.5 mg/kg of 37.9%.
With `NS(=O)(=O)OCC1Cc2ccccc2OC2(CCCC2)O1` (racemic) [Example 19, (4,5-dihydrospiro[benzo[d][1,3]dioxepine-2,1′-cyclopentan]-4-yl)methyl sulfamate] the response vs control in vivo at 3.5 mg/kg was 33.3%.

Tested on: CFA-induced pain model
Assay: Antiallodynic activity on Complete Freund's Adjuvant (CFA)-induced inflammatory pain model (von Frey)
Format: in vivo, Sprague-Dawley rats
Conditions: Rattus norvegicus, ip, 0.5 h, read-out: CFA model: effect (%) compared to control
Method: Male, Sprague-Dawley rats (200-220 g, Nara Bio, Korea) were habituated for 1 week before surgery and allowed free access to food and water throughout the experimentation. Room temperature and humidity were maintained at 24±2° C. and 50±10%, respectively.
CFA-induced inflammatory pain was induced by the procedure of Nagakura et al. (2003) and Gregory P. et al. (2010) with minor modifications. CFA (sigma, USA) was injected into the left plantar with a 100 ul volume under gaseous anesthesia with isoflurane and NO2 with a 4:4 flow ratio. Sham controls were injected with 100 ul of saline and preparation of the vehicle controls were identical to the group treated with compound, except for administration of vehicles without compound in the vehicle control group.
Tactile sensitivity (mechanical allodynia) was evaluated using von Frey monofilaments before and after treatment, and the animals were included in the study only if the withdrawal threshold value was less than 4 g. One week after surgery, CFA-infused animals (n=4˜6), sham-operated animals (n=12), and vehicle-operated animals (n=17) were tested for tactile sensitivity with von Frey monofilaments, with 3 trials for each animal. All animals were placed in a stainless steel mesh chamber and habituated for 30 min in the test cage. The tactile sensitivity for the ipsilateral hind paw was measured using the up-and-down method (Dixon, 1980) with seven von Frey monofilaments (0.4, 1, 2, 4, 6, 8, and 15 g) in 3 trials. The tactile sensitivity test was followed by Dixon's method (Dixon, 1980). The 50% paw withdrawal threshold for each paw was calculated using the following formula: [Xth] log=[vFr] log+ky where [vFr] is the force of the last von Frey used, k=0.2249 which is the average interval (in log units) between the von Frey monofilaments, and y is a value that depends upon the pattern of the withdrawal responses (Dixon, 1980).
The antiallodynic effect of the compound of Example was evaluated at the doses of 10, 30 and 60 mg/kg (n=4˜6), and were intraperitoneally administered in a volume of 5 ul/g by bodyweight in a vehicle of 30% (v/v) PEG. […]
The relative values compared to the sham (% control) were calculated and are shown in Table 4, which show an antiallodynic effect of the compound of examples in the CFA-induced pain model in rats.
`CC1(C)Oc2ccccc2C(COS(N)(=O)=O)O1` (stereo not drawn) [Example 72, Potassium (((2,2-dimethyl-4H-benzo[d][1,3]dioxin-4-yl)methoxy)sulfonyl)amide] showed a response vs control in vivo at 50 mg/kg of 67.1%.

Same assay, conditions: ip; rat, intraperitoneal, 25 mg/kg administered, 0.5 h; read-out: CFA model: effect (%) compared to control
`NS(=O)(=O)OCC1OC2(CCCCC2)Oc2ccc(Cl)cc21` (racemic) [Example 53, (6-chloro-4H-spiro[benzo[d][1,3]dioxine-2,1′-cyclohexan]-4-yl)methyl sulfamate] gave a response vs control in vivo at 25 mg/kg of 57.3%.
`CC1(C)Oc2ccc(F)cc2C(COS(N)(=O)=O)O1` (racemic) [Example 54, (6-fluoro-2,2-dimethyl-4H-benzo[d][1,3]dioxin-4-yl)methyl sulfamate] showed a response vs control in vivo at 25 mg/kg of 82.9%.
Molecule `COc1ccc2c(c1)C(COS(N)(=O)=O)OC(C)(C)O2` (racemic) [Example 57, (6-methoxy-2,2-dimethyl-4H-benzo[d][1,3]dioxin-4-yl)methyl sulfamate] has a response vs control in vivo at 25 mg/kg of 39.1%.
In the case of `NS(=O)(=O)OC[C@@H]1OC2(CCCCC2)Oc2ccccc21` [Example 10, ((R)-4H-spiro[benzo[d][1,3]dioxine-2,1′-cylcohexan]-4-yl)methyl sulfamate], the response vs control in vivo at 25 mg/kg is reported as 37.2%.
`CCC1(CC)Oc2c(Cl)cccc2[C@@H](COS(N)(=O)=O)O1` [Example 29, ((S)-8-chloro-2,2-diethyl-4H-benzo[d][1,3]dioxin-4-yl)methyl sulfamate] showed a response vs control in vivo at 25 mg/kg of 43.9%.

Same assay, conditions: ip; rat, intraperitoneal, 50 mg/kg administered, 0.5 h; read-out: CFA model: effect (%) compared to control
`CCC1(CC)Oc2ccccc2C(COS(N)(=O)=O)O1` (racemic) [Example 6, (2,2-diethyl-4H-benzo[d][1,3]dioxin-4-yl))methyl sulfamate] gave a response vs control in vivo at 50 mg/kg of 64.6%.
In the case of `NS(=O)(=O)OCCC1OC2(CCCCC2)Oc2ccccc21` (racemic) [Example 16, 2-(4H-spiro[benzo[d][1.3]dioxine-2,1′-cyclohexan]-4-yl)ethyl sulfamate], the response vs control in vivo at 50 mg/kg is reported as 38.9%.
`CCC1(CC)Oc2ccccc2CC(COS(N)(=O)=O)O1` (racemic) [Example 18, (2,2-diethyl-4,5-dihydrobenzo[d][1,3]dioxepin-4-yl)methyl sulfamate] gave a response vs control in vivo at 50 mg/kg of 91.7%.
For `NS(=O)(=O)OCC1Cc2ccccc2OC2(CCCCC2)O1` (racemic) [Example 20, (4,5-dihydrospiro[benzo[d][1,3]dioxepine-2,1′-cyclohexan]-4-yl)methyl sulfamate], the response vs control in vivo at 50 mg/kg was 69%.
In the case of `CC1(C)Oc2cc(Cl)ccc2C(COS(N)(=O)=O)O1` (racemic) [Example 45, (7-chloro-2,2-dimethyl-4H-benzo[d][1,3]dioxin-4-yl)methyl sulfamate], the response vs control in vivo at 50 mg/kg is reported as 33.1%.
Molecule `CC1(C)Oc2ccc(Cl)cc2C(COS(N)(=O)=O)O1` (racemic) [Example 48, (6-chloro-2,2-dimethyl-4H-benzo[d][1,3]dioxin-4-yl)methyl sulfamate] has a response vs control in vivo at 50 mg/kg of 21.7%.
Molecule `CCC1(CC)Oc2ccc(Cl)cc2C(COS(N)(=O)=O)O1` (racemic) [Example 51, (6-chloro-2,2-diethyl-4H-benzo[d][1,3]dioxin-4-yl)methyl sulfamate] has a response vs control in vivo at 50 mg/kg of 23.3%.
Molecule `NS(=O)(=O)OC[C@H]1OC2(CCCC2)Oc2ccccc21` [Example 8, ((S)-4H-spiro[benzo[d][1,d]dioxine-2,1′-cyclopentan]-4-yl)methyl sulfamate] has a response vs control in vivo at 50 mg/kg of 74.8%.
Work on `CC1(C)Oc2c(Cl)cccc2[C@@H](COS(N)(=O)=O)O1` [Example 26, ((S)-8-chloro-2,2-dimethyl-4H-benzo[d][1,3]dioxin-4-yl)methyl sulfamate] yielded a response vs control in vivo at 50 mg/kg of 34.2%.
For `NS(=O)(=O)OC[C@H]1OC2(CCCC2)Oc2c(Cl)cccc21` [Example 32, ((S)-8-chloro-4H-spiro[benzo[d][1,3]dioxine-2,1′-cyclopentan]-4-yl)methyl sulfamate], the response vs control in vivo at 50 mg/kg was 51.9%.
With `NS(=O)(=O)OC[C@H]1OC2(CCCCC2)Oc2c(Cl)cccc21` [Example 35, ((S)-8-chloro-4H-spiro[benzo[d][1,3]dioxine-2,1′-cylcohexan]-4-yl)methyl sulfamate] the response vs control in vivo at 50 mg/kg was 15.5%.
In the case of `CC1(C)Oc2ccc(Cl)cc2[C@H](COS(N)(=O)=O)O1` [Example 46, ((R)-6-chloro-2,2-dimethyl-4H-benzo[d][1,3]dioxin-4-yl)methyl sulfamate], the response vs control in vivo at 50 mg/kg is reported as 36.4%.
For `CC1(C)Oc2ccc(Cl)cc2[C@@H](COS(N)(=O)=O)O1` [Example 47, ((S)-6-chloro-2,2-dimethyl-4H-benzo[d][1,3]dioxin-4-yl)methyl sulfamate], the response vs control in vivo at 50 mg/kg was 100%.
